Measured values reported in US10577363B2, “Substituted piperidine compounds” (EPIZYME, INC., priority 2014, dated 2020).

Biological target: SMYD3 (Homo sapiens (Human), UniProt Q9H7B4)
Test: SMYD3 biochemical assay (SPA, 3H-SAM methylation of MEKK2 protein substrate)
Settings: Table 1A; IC50 values are an average of n = 1 to n = 50; read-out: SMYD3 Biochem IC50
Outline: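 SPA methyltransferase format: tag-cleaved human SMYD3, insect-cell GST-MEKK2 protein substrate, 3H-SAM donor, 30 min RT enzyme–compound preincubation, 100 uM cold SAM quench.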

IC50 [µM] | Compound
0.00592 | C[C@H]1C[C@@H](NC(=O)c2cc(C3CC3)on2)CCN1S(=O)(=O)c1ccc(NCCN)nc1 [compound 509, N-((2S,4S)-1-((6-((2-aminoethyl)amino)pyridin-3-yl)sulfonyl)-2-methylpiperidin-4-yl)-5-cyclopropylisoxazole-3-carboxamide]

Same assay, conditions: read-out: SMYD3 Biochem IC50 (μM)*

Compound | IC50 [µM]
N[C@H]1CC[C@H](C(=O)N2CCC(NC(=O)c3cc(C4CC4)on3)C(c3ccccc3)C2)CC1 (some centres unmarked) [compound 469, N-(1-((1r,4r)-4-aminocyclohexane-1-carbonyl)-3-phenylpiperidin-4-yl)-5-cyclopropylisoxazole-3-carboxamide] | 6.28
CCCCS(=O)(=O)N1CC[C@@H](NC(=O)c2cc(C3CC3)on2)C[C@H]1C [compound 251, N-((2R,4R)-1-(butylsulfonyl)-2-methylpiperidin-4-yl)-5-cyclopropylisoxazole-3-carboxamide] | 6.15
COC(=O)CCS(=O)(=O)N1CC[C@@H](NC(=O)c2cc(C3CC3)on2)C[C@H]1C [compound 256, methyl 3-(((2R,4R)-4-(5-cyclopropylisoxazole-3-carboxamido)-2-methylpiperidin-1-yl)sulfonyl)propanoate] | > 10
NCC(=O)NC[C@H](Cc1ccc(O)c(I)c1)C(=O)N1CCC(NC(=O)c2cc(C3CC3)on2)CC1 [compound 37, (S)-N-(1-(3-(2-aminoacetamido)-2-(4-hydroxy-3-iodobenzyl)propanoyl)piperidin-4-yl)-5-cyclopropylisoxazole-3-carboxamide] | 0.623
O=C(N[C@@H]1CCN(S(=O)(=O)CCN2CCOCC2)[C@@H](Cc2ccccc2)C1)c1cc(C2CC2)on1 [compound 409, N-((2S,4R)-2-benzyl-1-((2-morpholinoethyl)sulfonyl)piperidin-4-yl)-5-cyclopropylisoxazole-3-carboxamide] | > 10
CCCS(=O)(=O)N1CC[C@@H](NC(=O)c2cc(C3CC3)on2)C[C@@H]1C [compound 322, 5-cyclopropyl-N-((2S,4R)-2-methyl-1-(propylsulfonyl)piperidin-4-yl)isoxazole-3-carboxamide] | > 10
C[C@@H]1CN(C(=O)CN)CC[C@@H]1NC(=O)c1cc(C2CC2)on1 [compound 51, 5-cyclopropyl-N-((3R,4S)-1-glycyl-3-methylpiperidin-4-yl)isoxazole-3-carboxamide] | 12.7
O=C(NC1CCN(C(=O)[C@@H](CO)Cc2ccc(O)c(I)c2)CC1)c1cc(C2CC2)on1 [compound 31, (R)-5-cyclopropyl-N-(1-(3-hydroxy-2-(4-hydroxy-3-iodobenzyl)propanoyl)piperidin-4-yl)isoxazole-3-carboxamide] | 5.1

The next lines start with the values.

IC50 [µM] | Compound
2.45 | CCS(=O)(=O)N1CC[C@H](NC(=O)c2cc(C3CC3)on2)C[C@@H]1C [compound 260, 5-cyclopropyl-N-((2S,4S)-1-(ethylsulfonyl)-2-methylpiperidin-4-yl)isoxazole-3-carboxamide]
5.6 | C[C@H]1CC(NC(=O)c2cc(C3CC3)on2)CCN1C(=O)[C@H]1CCC[C@@H](N)C1 (stereo partly drawn) [compound 117, N-((2S)-1-((1S,3R)-3-aminocyclohexane-1-carbonyl)-2-methylpiperidin-4-yl)-5-cyclopropylisoxazole-3-carboxamide]
0.546 | C[C@@H]1CC(NC(=O)c2cc(C3CC3)on2)CCN1C(=O)C1CC2(CCNC2)C1 (stereo partly drawn) [compound 144, 5-cyclopropyl-N-((2R)-2-methyl-1-(6-azaspiro[3.4]octane-2-carbonyl)piperidin-4-yl)isoxazole-3-carboxamide]
1.76 | C[C@@H]1C[C@@H](NC(=O)c2cc(C3CC3)on2)CCN1S(=O)(=O)N1CCN(C)CC1 [compound 243, 5-cyclopropyl-N-((2R,4S)-2-methyl-1-((4-methylpiperazin-1-yl)sulfonyl)piperidin-4-yl)isoxazole-3-carboxamide]
9.05 | C[C@@H]1C[C@@H](NC(=O)c2cc(C3CC3)on2)CCN1C(=O)CC(O)CN (stereo partly drawn) [compound 225, N-((2R,4S)-1-(4-amino-3-hydroxybutanoyl)-2-methylpiperidin-4-yl)-5-cyclopropylisoxazole-3-carboxamide]
